One assay deals with Rattus norvegicus. Put plainly: Effective dose for Anti-inflammatory activity was determined by carrageenan induced rat hind paw edema model. The class given is functional. A general note: In the carrageenan paw model, swelling and tenderness develop within hours.
In assay [1] the target is T1, Prostaglandin G/H synthase 1 (Ovis aries, UniProt P05979).
T1 sequence (P05979 whole entry): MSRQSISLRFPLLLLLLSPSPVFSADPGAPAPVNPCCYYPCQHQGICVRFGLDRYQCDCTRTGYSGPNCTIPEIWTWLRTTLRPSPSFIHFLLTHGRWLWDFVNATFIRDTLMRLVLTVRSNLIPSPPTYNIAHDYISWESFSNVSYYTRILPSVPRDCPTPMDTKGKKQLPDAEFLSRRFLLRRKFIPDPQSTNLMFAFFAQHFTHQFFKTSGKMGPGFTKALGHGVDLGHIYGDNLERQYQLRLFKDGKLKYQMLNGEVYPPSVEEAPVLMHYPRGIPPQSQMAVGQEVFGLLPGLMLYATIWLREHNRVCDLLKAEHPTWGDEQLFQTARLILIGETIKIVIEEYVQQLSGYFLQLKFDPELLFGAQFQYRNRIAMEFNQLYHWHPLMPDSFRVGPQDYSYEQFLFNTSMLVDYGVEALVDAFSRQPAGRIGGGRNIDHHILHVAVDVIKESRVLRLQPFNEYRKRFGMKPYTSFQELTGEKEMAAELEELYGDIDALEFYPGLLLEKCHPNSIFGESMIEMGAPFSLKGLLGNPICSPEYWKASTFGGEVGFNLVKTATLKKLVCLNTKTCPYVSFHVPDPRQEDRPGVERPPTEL
Nature of the assay: In vitro inhibitory concentration against ram seminal vesicle prostaglandin G/H synthase 1. The class given is tissue-based.

On to `CC(C(=O)O)c1ccc(-c2ccsc2)cc1` (configuration not stated) [ATLIPROFEN], for which, in the assay on Rattus norvegicus, the ED50 (usually the midpoint of the dose-response relation) came out at 5.74 mg/kg.
Take `CC(C)Cc1ccc([C@H](C)C(=O)O)cc1` [DEXIBUPROFEN]: the ED50 in the assay on Rattus norvegicus came out at 7.08 mg/kg.
`COc1ccc2cc(C(C)C(=O)O)ccc2c1` (configuration not stated) returned an ED50 in the assay on Rattus norvegicus of 2.35 mg/kg.
`COc1ccc2cc([C@H](C)C(=O)O)ccc2c1` [NAPROXEN] had an ED50 in the assay on Rattus norvegicus of 0.99 mg/kg.
In turn, `CC(C)Cc1ccc(C(C)C(=O)O)cc1` (configuration not stated) [IBUPROFEN] registered an ED50 in the assay on Rattus norvegicus of 33.2 mg/kg.
On to `C[C@H](C(=O)O)c1ccc(-c2ccsc2)cc1`, for which, in assay [1], the IC50 (in general, the midpoint of a concentration-inhibition curve) came to 45.2 µM. For the same compound, the ED50 in the assay with Rattus norvegicus is 1.85 mg/kg.
